In patent EP1003775B1, “HEPATITIS C INHIBITOR PEPTIDES” (BOEHRINGER INGELHEIM (CANADA) LTD., priority 1997, dated 2005):

System: NS3 protease
Assay: HCV NS3 protease inhibition (recombinant NS3 protease radiometric assays)
Type: biochemical, hepatitis C virus
Settings: qualitative statement
Procedure: The substrate used for the HCV NS3 protease radiometric assay, DDIVPC-SMSYTW, is cleaved between the cysteine and the serine residues by the enzyme. The sequence DDIVPC-SMSYTW corresponds to the NS5A/NS5B natural cleavage site in which the cysteine residue in P2 has been substituted for a proline. The peptide substrate DDIVPC-SMSYTW and the tracer biotin-DDIVPC-SMS[^125I-Y]TW were incubated with the recombinant NS3 protease in the absence or in the presence of inhibitors. The separation of substrate from products was performed by adding avidin-coated agarose beads to the assay mixture followed by filtration. The amount of SMS [^125I-Y]TW product found in the filtrate (with or without inhibitor) allowed for the calculation of the percentage of substrate conversion and of the percentage of inhibition.
The assay was performed in a 96-well polypropylene plate. Each well contained: • 20 µL substrate/tracer in assay buffer; • 10 µL ± inhibitor in 20% DMSO/assay buffer; • 10 µL NS3 protease 1b. […]
The filtrates were counted on a Packard® TopCount instrument using a ^125I-liquid protocol for 1 minute. The %inhibition was calculated with the following equation: 100- [(countsinh -countsblank ) / (countsctl -countsblank ) x 100] […]
The value of IC50 was calculated in the same manner as in Example 19.

## Ac-DDIVPC-OH [Ac-D-D-I-V-P-C-OH]
  inhibition of the NS3 protease: inhibitory
